In ChEMBL document CHEMBL1201862, “PubChem BioAssay data set” (2004):
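Where inhibition never reached the appropriate level, the endpoint shown equals the highest concentration tested. Otherwise, values were interpolated linearly from a five-concentration, 48-hour dose response in 96-well plates. GI50 marks 50% less growth.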 Calls of active or inactive are those of the source. Cut-off read from the data, not from the text of the source: active = GI50 up to about 1.1 µM and inactive = higher.

Assays:
Experiment in all cases: NCI anticancer screen, dose series, 48 h
OVCAR-4 = system: OVCAR-4
SW-620 = system: SW-620
NCI-H23 = system: NCI-H23
MDA-MB-435 = system: MDA-MB-435
SN12C = system: SN12C
A549 = system: A549
A498 = system: A498
RXF 393 = system: RXF 393
786-0 = system: 786-0
COLO 205 = system: COLO 205
TK-10 = system: TK-10
OVCAR-3 = system: OVCAR-3
DU-145 = system: DU-145
Hs-578T = system: Hs-578T
UACC-62 = system: UACC-62
CCRF-CEM = system: CCRF-CEM
OVCAR-8 = system: OVCAR-8
UACC-257 = system: UACC-257
HOP-62 = system: HOP-62
MOLT-4 = system: MOLT-4

Measured: GI50

Cn1c(=O)[nH]n(-c2ccc3ccccc3c2)c1=O
inactive: OVCAR-4 > 100 µM | SW-620 > 100 µM | NCI-H23 > 100 µM | MDA-MB-435 > 100 µM | SN12C > 100 µM | A549 > 100 µM | A498 > 100 µM | RXF 393 > 100 µM | 786-0 > 100 µM | COLO 205 > 100 µM | TK-10 > 100 µM | OVCAR-3 > 100 µM | DU-145 > 100 µM | Hs-578T > 100 µM | UACC-62 > 100 µM | CCRF-CEM > 100 µM | OVCAR-8 > 100 µM | UACC-257 > 100 µM

COc1cc(CNc2nc3cc(C(F)(F)F)ccc3nc2C(=O)O)cc(OC)c1OC
inactive: SW-620 31.6 µM | NCI-H23 33.8 µM | MDA-MB-435 23.4 µM | SN12C 15.4 µM | A549 21.4 µM | A498 24.2 µM | HOP-62 18.5 µM | MOLT-4 20.7 µM | RXF 393 23.8 µM | 786-0 19.3 µM | COLO 205 22.6 µM | TK-10 13.1 µM | OVCAR-3 24.3 µM | DU-145 33.2 µM | Hs-578T 10.4 µM | UACC-62 15.5 µM | OVCAR-8 34.4 µM | UACC-257 21.5 µM

OC[C@H]1N[C@H](CO)[C@@H](O)[C@H]1O
inactive: SW-620 > 100 µM | NCI-H23 > 100 µM | MDA-MB-435 > 100 µM | SN12C > 100 µM | A549 > 100 µM | A498 > 100 µM | HOP-62 > 100 µM | MOLT-4 > 100 µM | RXF 393 > 100 µM | 786-0 > 100 µM | COLO 205 > 100 µM | TK-10 > 100 µM | DU-145 > 100 µM | Hs-578T > 100 µM | UACC-62 > 100 µM | CCRF-CEM > 100 µM | OVCAR-8 > 100 µM | UACC-257 > 100 µM

Nc1nc(=O)n(C2OC(CO)C(O)C2O)c2ncc(-c3ccc(-c4ccccc4)cc3)nc12 (stereo not drawn)
inactive: OVCAR-4 > 100 µM | SW-620 > 100 µM | NCI-H23 > 100 µM | MDA-MB-435 > 100 µM | SN12C > 100 µM | A549 > 100 µM | A498 > 100 µM | HOP-62 60 µM | MOLT-4 > 100 µM | RXF 393 > 100 µM | 786-0 28.4 µM | COLO 205 > 100 µM | TK-10 > 100 µM | DU-145 > 100 µM | Hs-578T > 100 µM | UACC-62 66.4 µM | CCRF-CEM 9.62 µM | OVCAR-8 > 100 µM | UACC-257 > 100 µM

Oc1ccc2c(c1)CCc1c-2n(CCN2CCOCC2)c2ccc(O)cc12
inactive: SW-620 44.9 µM | NCI-H23 27.7 µM | MDA-MB-435 44.4 µM | SN12C > 100 µM | A498 14.9 µM | HOP-62 43.4 µM | MOLT-4 33.4 µM | RXF 393 30.5 µM | 786-0 43.5 µM | COLO 205 56.2 µM | TK-10 36.7 µM | OVCAR-3 48.6 µM | DU-145 33 µM | Hs-578T 32.8 µM | UACC-62 20.6 µM | CCRF-CEM 38.2 µM | OVCAR-8 20.2 µM | UACC-257 37.2 µM

CN1CC(S(=O)(=O)c2ccccc2)CC(S(=O)(=O)c2ccccc2)C1c1ccccc1 (stereo not drawn)
inactive: OVCAR-4 12 µM | SW-620 8.3 µM | MDA-MB-435 10.9 µM | SN12C 10.4 µM | A549 32.7 µM | A498 16.2 µM | HOP-62 20 µM | MOLT-4 16.8 µM | RXF 393 14.9 µM | 786-0 12.2 µM | COLO 205 13.6 µM | TK-10 14.2 µM | OVCAR-3 12.3 µM | DU-145 18 µM | Hs-578T 20.9 µM | UACC-62 14.3 µM | OVCAR-8 28.7 µM | UACC-257 15 µM

CC(=O)Nc1cc(C(=O)Nc2cc(C(=O)Nc3cc(C(=O)Nc4cc(C(=O)Nc5cc(C(=O)NCCC(=O)NCCCN(C)C)n(C)c5)n(C)c4)n(C)c3)n(C)c2)n(C)c1
inactive: OVCAR-4 > 100 µM | SW-620 69.5 µM | NCI-H23 > 100 µM | MDA-MB-435 36.8 µM | SN12C > 100 µM | A549 > 100 µM | A498 > 100 µM | HOP-62 > 100 µM | MOLT-4 38.9 µM | RXF 393 > 100 µM | 786-0 63.7 µM | COLO 205 46.8 µM | TK-10 > 100 µM | OVCAR-3 > 100 µM | DU-145 > 100 µM | Hs-578T 34.2 µM | CCRF-CEM 27.8 µM | OVCAR-8 > 100 µM | UACC-257 76.2 µM

Oc1ccccc1/C=N/Nc1nc(N/N=C/c2ccccc2O)nc(N/N=C/c2ccccc2O)n1
inactive: OVCAR-4 > 100 µM | SW-620 > 100 µM | NCI-H23 > 100 µM | MDA-MB-435 > 100 µM | SN12C > 100 µM | A549 > 100 µM | A498 > 100 µM | HOP-62 44.6 µM | MOLT-4 10.5 µM | RXF 393 87.1 µM | 786-0 40.2 µM | COLO 205 > 100 µM | TK-10 > 100 µM | OVCAR-3 29.2 µM | DU-145 > 100 µM | Hs-578T 46.5 µM | UACC-62 51.1 µM | OVCAR-8 > 100 µM | UACC-257 > 100 µM

COC(=O)c1ccccc1NC(=S)NN(C)C
inactive: OVCAR-4 > 100 µM | SW-620 > 100 µM | NCI-H23 > 100 µM | MDA-MB-435 > 100 µM | A549 > 100 µM | A498 > 100 µM | MOLT-4 > 100 µM | RXF 393 > 100 µM | 786-0 > 100 µM | COLO 205 > 100 µM | TK-10 > 100 µM | OVCAR-3 > 100 µM | DU-145 > 100 µM | Hs-578T > 100 µM | UACC-62 > 100 µM | CCRF-CEM > 100 µM | OVCAR-8 > 100 µM | UACC-257 > 100 µM

CC(C)=CCC[C@@H](C)/C=C/C=C(\C)C(=O)CC[C@@H]1CC[N@+]2(C)CCCC[C@H]12
inactive: OVCAR-4 > 100 µM | SW-620 > 100 µM | NCI-H23 > 100 µM | MDA-MB-435 > 100 µM | SN12C > 100 µM | A549 > 100 µM | A498 > 100 µM | HOP-62 > 100 µM | MOLT-4 > 100 µM | RXF 393 35.1 µM | 786-0 > 100 µM | COLO 205 81.3 µM | TK-10 > 100 µM | OVCAR-3 32.9 µM | DU-145 > 100 µM | Hs-578T 96.4 µM | UACC-62 > 100 µM | OVCAR-8 > 100 µM | UACC-257 > 100 µM

CCOC(=O)C1(C/C=C/CCl)CCCC1=O (stereo not drawn)
inactive: OVCAR-4 29.6 µM | SW-620 20.3 µM | NCI-H23 18.8 µM | MDA-MB-435 20.3 µM | SN12C 24.1 µM | A549 21.5 µM | A498 25.2 µM | HOP-62 20.5 µM | MOLT-4 35.1 µM | RXF 393 16.8 µM | 786-0 22.8 µM | COLO 205 26 µM | TK-10 21.1 µM | DU-145 31.1 µM | Hs-578T 44 µM | UACC-62 14.1 µM | CCRF-CEM 19.5 µM | OVCAR-8 20.8 µM | UACC-257 35.2 µM
